Measurements as given in patent US20070145619A1, “Processes for producing microencapsulated delivery vehicles” (Kimberly-Clark Worldwide, Inc., priority 2005, published 2007).
Read-outs that look alike come from different tables or passages of the source.

How the values were obtained:
[1] = Heat generation after soaking in de-ionized water; format: physicochemical; conditions: 0.73 grams added to 7.0 grams de-ionized water, no protective layer; FIG. 6
Experimental: Four samples of the calcium chloride particles including a moisture protective layer were then analyzed for their ability to generate heat after exposure to water. A control sample (calcium chloride) was also tested for heat generating capabilities and compared to the four samples of calcium chloride having a moisture protective layer.
To analyze the samples for heat generation, 0.80 grams of each sample of calcium chloride including a moisture protective layer was added to four separate vials each containing 7.0 grams of de-ionized water and 0.73 grams of the control sample was added to a fifth vial containing 7.0 grams of de-ionized water. Using a J type thermocouple (commercially available from Omega Engineering, Inc., Stamford, Conn.) and a data logger, the temperature of the samples was measured over a period of 180 seconds. The four vials containing the samples of microencapsulated heat delivery vehicle including a moisture protective layer were allowed to remain in the de-ionized water for 0.5 hours, 1.0 hour, 1.5 hours, and 2.0 hours, respectively, at which time the samples were activated by crushing the samples by hand using a metal rod. The temperature of the water in the four vials was measured for a period of 180 seconds after crushing the samples.

Staphylococcus aureus = test: Biocidal efficacy of magnesium chloride in combination with PHMB, total plate count; format: cell-based; conditions: 15-minute contact time
Experimental: A 1.5-milliliter tube was prepared using magnesium chloride in water.
Two control samples were also prepared. One control sample was filled with 0.850 milliliters magnesium chloride. A second control sample was prepared by introducing 0.850 milliliters sterile water.
The tubes were then vortexed until an increase in temperature was observed.
0.05 milliliters of 1×10^7 CFU/milliliter culture of Staphylococcus aureus was added to each tube. After a 15-minute contact time, 0.1 milliliters of each tube was transferred into 0.9 milliliters letheen broth. To the broth, 10 milligrams/milliliter sodium thiosulfate was also added. The tubes were again vortexed. After vortexing, 0.1 milliliters of each tube was plated on Tryptic soy agar plates. The plates were inverted and incubated at 37° C. for 24 hours. An inoculum control plate was also plated to determine the concentration of the inoculum
After 24 hours, the plates were evaluated using a total plate count to determine the biocidal efficacy of each sample.

[2] = particle size less than 250 micrometers, compared with three other size ranges; 35 wt % in mineral oil added to 7.0 grams de-ionized water; FIG. 4
Experimental: In this example, samples incorporating various size ranges of anhydrous magnesium chloride suspended in mineral oil at 35 wt % were evaluated for their ability to generate heat upon introduction into water.
The four size ranges of anhydrous magnesium chloride evaluated were: (1) 1000-1500 microns; (2) 600-1000 microns; (3) 250-600 microns; and (4) less than 250 microns. To produce the samples of anhydrous magnesium chloride in mineral oil, the various size ranges of anhydrous magnesium chloride powder (Magnesium Interface Inc. (Vancouver, B.C., Canada) were suspended at 35 wt % in mineral oil (available as Drakeol 7 LT NF from Penreco, Dickinson, Tex.). To produce the samples having anhydrous magnesium chloride with size ranges of 1000-1500 microns, 600-1000 microns, and 250-600 microns, the as received anhydrous magnesium chloride powder was hand screened into the size ranges desired and the powders collected. These powders were suspended at 35 wt % in mineral oil using a cowles mixing blade. […]
All four samples were then added to 7.0 grams de-ionized water and the resulting temperature rise was measured using a J type Thermocouple (available from Omega Engineering, Inc., Stamford, Conn.).

[3] = particle size 149-355 micrometers, compared with four other size ranges; 35 wt % in mineral oil added to 7.0 grams de-ionized water; FIG. 3
Experimental: In this example, samples incorporating various size ranges of anhydrous calcium chloride suspended in mineral oil at 35 wt % were evaluated for their ability to generate heat upon introduction into water.
The five size ranges of anhydrous calcium chloride evaluated were: (1) less than 149 microns; (2) 149-355 microns; (3) 710-1190 microns; (4) 1190-2000 microns; and (5) 2000-4000 microns. The samples of anhydrous calcium chloride (Dow Chemical, Midland, Mich.) were dispersed in mineral oil (available as Drakeol 7 LT NF from Penreco, Dickinson, Tex.). The as received anhydrous calcium chloride were screened dry using a Gilson Sonic Sieve (Gilson Company, Inc. Columbus, Ohio) to create two sizes, a 1190-2000 micron size and a 2000-4000 micron size. These powders were then suspended at 35 wt % in mineral oil to form a slurry using a cowles mixing blade. To achieve the smaller size distributions, the anhydrous calcium chloride powder required further processing. […]
All five samples were then individually added to 7.0 grams de-ionized water and the resulting temperature rise was measured using a Barnant Scanning Thermocouple (available from Therm-X of California, Hayward, Calif.).

[4] = test system: Methicillin-resistant Staphylococcus aureus; conditions: for LOG10 Reduction: 0.005% PHMB vs no PHMB; for LOG10 Reduction / Total CFU Recovered MRSA: 10-minute contact time; for Total CFU Recovered MRSA: 0.005% PHMB, 5% bovine serum albumin soil, n = 2
Experimental: This Example utilized 1.5-milliliter tubes containing a 1-milliliter blend of phosphate-buffered saline (pH 7.2) and 5% (w/v) bovine serum albumin soil. The tubes were placed in electric heat blocks set for 22° C., 30° C., 40° C. and 50° C., respectively. The tubes remained in the electric heat blocks for approximately 10 minutes.
After 10 minutes, 0.005% (by weight) active polyhexamehtylene biguanide (PHMB) (commercially available as Cosmocil® CQ from Arch Biocides, Inc., United Kingdom) was added to two tubes at each temperature level. Duplicate tubes without PHMB at each temperature were also made.
The tubes were then vortexed and Methicillin-resistant Staphylococcus aureus (approximately 1×10^5 colony forming units (CFU)) was then added to each tube. All of the tubes were then placed back into the heat blocks at their respective temperatures.
Following a 10-minute contact time, 0.1 milliliters of each sample was transferred to 0.9 milliliters letheen broth to neutralize the PHMB activity. The letheen samples were then plated in duplicate on Tryptic Soy agar plates using a WASP2 spiral plater (commercially available from Don Whitley Scientific, Ltd., Yorkshire, United Kingdom). The plates were inverted and incubated at 37±2° C. for 48 hours.
After 48 hours, the plates were evaluated using a total plate count to determine the biocidal efficacy of each sample.

[Ca+2].[Cl-].[Cl-] [Example 11 control sample, calcium chloride]
heat production in water [1]: produced heat immediately upon being introduced into water but only for a short period of time

[Cl-].[Cl-].[Mg+2] [Magnesium Chloride, magnesium chloride]
LOG10 recovered (Staphylococcus aureus; PHMB 0%, magnesium chloride 50%): 1.9 LOG10
rate of heat generation [2]: highest rate

[Ca+2].[Cl-].[Cl-] [anhydrous calcium chloride, calcium chloride]
rate of heat generation [3]: highest rate

polyhexamethylene biguanide [PHMB]
difference in efficacy between 22° C. and 50° C. ([4]; 0.005% (by weight) active PHMB): greater than 1.4 LOG10
LOG10 Reduction ([4]; 22° C.): 2.1 LOG10
Total CFU Recovered MRSA ([4]; 22° C.): 3.5 CFU
LOG10 Reduction ([4]; 30° C.): 2.8 LOG10
Total CFU Recovered MRSA ([4]; 30° C.): 2.9 CFU
LOG10 Reduction ([4]; 40° C.): 3.5 LOG10
Total CFU Recovered MRSA ([4]; 40° C.): 2.1 CFU
LOG10 Reduction ([4]; 50° C.): >3.5 LOG10
Total CFU Recovered MRSA ([4]; 50° C.): <2 CFU
LOG10 recovered (Staphylococcus aureus; PHMB 0.00025%, magnesium chloride 0%): 4.8 LOG10
